{"source": "ChEMBL document CHEMBL1122822", "about": "(1985)", "key": {"[1]": {"test_system": "MCF7", "test": "Effect of compound with 10e-8 M estradiol on the growth of MCF-7 cells at a concentration 10 e-7 M, percentage of control value being 85", "format": "functional, Homo sapiens"}, "[2]": {"test_system": "MCF7", "test": "Effect of compound on the growth of MCF-7 cells at a concentration of 10 e-6 M Experiment 2, percentage of control value being 13", "format": "functional, Homo sapiens"}, "[3]": {"test_system": "MCF7", "test": "Effect of compound with 10e-8 M estradiol on the growth of MCF-7 cells at a concentration of 10 e-6 M, percentage of control value being 32", "format": "functional, Homo sapiens"}, "[4]": {"test_system": "MCF7", "test": "Effect of compound on the growth of MCF-7 cells at a concentration of 10 e-7 M Experiment 2, percentage of control value being 15", "format": "functional, Homo sapiens"}, "[5]": {"test_system": "MCF7", "test": "Effect of compound on the growth of MCF-7 cells at a concentration of 10 e-6 M, percentage of control value being 23", "format": "functional, Homo sapiens"}, "[6]": {"test_system": "MCF7", "test": "Effect on the growth of MCF-7 cells at a concentration of 10 e-7 M, percentage of control value being 36", "format": "functional, Homo sapiens"}, "[7]": {"test_system": "MCF7", "test": "Effect of compound on the growth of MCF-7 cells at a concentration of,10 e-6 M, percentage of control value being 63", "format": "functional, Homo sapiens"}, "[8]": {"test_system": "MCF7", "test": "Effect of compound with 10e-8 M estradiol on the growth of MCF-7 cells at a concentration 10 e-7 M, percentage of control value being 91", "format": "functional, Homo sapiens"}, "[9]": {"test_system": "MCF7", "test": "Effect on the growth of MCF-7 cells at a concentration of,10 e-7 M, percentage of control value being 84", "format": "functional, Homo sapiens"}, "[10]": {"test_system": "MCF7", "test": "Effect of compound with 10e-8 M estradiol on the growth of MCF-7 cells at a concentration of,10 e-6 M, percentage of control value being 90", "format": "functional, Homo sapiens"}, "[11]": {"test_system": "MCF7", "test": "Effect of compound with 10e-8 M estradiol on the growth of MCF-7 cells at a concentration 10 e-7 M, percentage of control value being 13", "format": "functional, Homo sapiens"}, "[12]": {"test_system": "MCF7", "test": "Effect on the growth of MCF-7 cells at a concentration of,10 e-7 M, percentage of control value being 80", "format": "functional, Homo sapiens"}, "[13]": {"test_system": "MCF7", "test": "Effect of compound on the growth of MCF-7 cells at a concentration of,10 e-6 M, percentage of control value being 85", "format": "functional, Homo sapiens"}, "[14]": {"test_system": "MCF7", "test": "Effect of compound with 10e-8 M estradiol on the growth of MCF-7 cells at a concentration 10 e-7 M, percentage of control value being 77", "format": "functional, Homo sapiens"}, "[15]": {"test_system": "MCF7", "test": "Effect of compound with 10e-8 M estradiol on the growth of MCF-7 cells at a concentration of,10 e-6 M, percentage of control value being 74", "format": "functional, Homo sapiens"}, "[16]": {"test_system": "MCF7", "test": "Effect on the growth of MCF-7 cells at a concentration of,10 e-7 M, percentage of control value being 87", "format": "functional, Homo sapiens"}, "[17]": {"test_system": "MCF7", "test": "Effect of compound with 10e-8 M estradiol on the growth of MCF-7 cells at a concentration of 10 e-6 M, percentage of control value being 68", "format": "functional, Homo sapiens"}, "[18]": {"test_system": "MCF7", "test": "Effect of compound on the growth of MCF-7 cells at a concentration of 10 e-6 M, percentage of control value being 35", "format": "functional, Homo sapiens"}, "[19]": {"test_system": "MCF7", "test": "Effect on the growth of MCF-7 cells at a concentration of 10 e-7 M, percentage of control value being 67", "format": "functional, Homo sapiens"}, "[20]": {"test_system": "MCF7", "test": "Effect of compound with 10e-8 M estradiol on the growth of MCF-7 cells at a concentration 10 e-7 M, percentage of control value being 90", "format": "functional, Homo sapiens"}, "[21]": {"biological_target": "Estrogen receptor (Rattus norvegicus) (UniProt P06211+Q62986)", "description": "In vitro relative binding affinity for rat uterine estrogen receptor compared to [3H]estradiol"}, "[22]": {"test_system": "MCF7", "test": "Effect on the growth of MCF-7 cells at a concentration of,10 e-7 M, percentage of control value being 20", "format": "functional, Homo sapiens"}, "[23]": {"test_system": "MCF7", "test": "Effect of compound with 10e-8 M estradiol on the growth of MCF-7 cells at a concentration 10 e-7 M, percentage of control value being 12", "format": "functional, Homo sapiens"}}, "data": [{"smiles": "CCC(=C(c1ccc(O)cc1)c1ccc(OCCN(C)C)cc1)c1ccccc1", "values": [{"measurement": "DNA", "setting": "[1]", "value": 14.2, "unit": "µg"}, {"measurement": "DNA", "setting": "[2]", "value": 1.1, "unit": "µg"}, {"measurement": "DNA", "setting": "[3]", "value": 5.4, "unit": "µg"}, {"measurement": "DNA", "setting": "[4]", "value": 1.2, "unit": "µg"}, {"measurement": "DNA", "setting": "[5]", "value": 3.8, "unit": "µg"}, {"measurement": "DNA", "setting": "[6]", "value": 6, "unit": "µg"}]}, {"smiles": "CC/C(=C(\\c1ccccc1)c1ccc(OCCN(C)C)cc1)c1ccccc1", "note": "[TAMOXIFEN]", "values": [{"measurement": "DNA", "setting": "[7]", "value": 10.6, "unit": "µg"}, {"measurement": "DNA", "setting": "[8]", "value": 15.2, "unit": "µg"}, {"measurement": "DNA", "setting": "[9]", "value": 14, "unit": "µg"}, {"measurement": "DNA", "setting": "[10]", "value": 15.1, "unit": "µg"}]}, {"smiles": "CC/C(=C(/c1ccc(OCCN(C)C)cc1)c1ccc(O)cc1O)c1ccccc1", "values": [{"measurement": "DNA", "setting": "[11]", "value": 1.1, "unit": "µg"}, {"measurement": "DNA", "setting": "[12]", "value": 6.6, "unit": "µg"}]}, {"smiles": "CC/C(=C(/c1ccc(OCCN(C)C)cc1)c1ccccc1O)c1ccccc1", "values": [{"measurement": "DNA", "setting": "[13]", "value": 14.2, "unit": "µg"}, {"measurement": "DNA", "setting": "[14]", "value": 12.8, "unit": "µg"}, {"measurement": "DNA", "setting": "[15]", "value": 12.4, "unit": "µg"}, {"measurement": "DNA", "setting": "[16]", "value": 14.6, "unit": "µg"}]}, {"smiles": "CC/C(=C(/c1ccc(OCCN(C)C)cc1)c1cccc(O)c1)c1ccccc1", "note": "[DROLOXIFENE]", "values": [{"measurement": "DNA", "setting": "[17]", "value": 11.3, "unit": "µg"}, {"measurement": "DNA", "setting": "[18]", "value": 5.9, "unit": "µg"}, {"measurement": "DNA", "setting": "[19]", "value": 11.2, "unit": "µg"}, {"measurement": "DNA", "setting": "[20]", "value": 15, "unit": "µg"}]}, {"smiles": "CC/C(=C(\\c1ccccc1)c1ccc(OCCN(C)C)cc1)c1cccc(O)c1", "values": [{"measurement": "IC50", "setting": "[21]", "value": 0.03, "unit": "µM"}]}, {"smiles": "CC/C(=C(/c1ccc(OCCN(C)C)cc1)c1ccc(O)cc1C)c1ccccc1", "values": [{"measurement": "DNA", "setting": "[22]", "value": 1.6, "unit": "µg"}, {"measurement": "DNA", "setting": "[23]", "value": 1, "unit": "µg"}]}]}
